The results in this text go back to ChEMBL document CHEMBL1125627 (J Med Chem, 1991).

Data set [1] is described as follows: Percentage ionization was measured. Format: ADME.
Data set [2] is described as follows: Serum protein binding ability was measured. Format: ADME.
A short description of data set [3]: physchem.

A word on the pKa: it is the pH at which an ionisable group is half protonated.

In data set [1], `CC[C@H]1OC(=O)[C@H](C)[C@@H](O[C@H]2C[C@@](C)(OC)[C@@H](O)[C@H](C)O2)[C@H](C)[C@@H](O[C@@H]2O[C@H](C)C[C@H](N(C)C)[C@H]2O)[C@](C)(O)C[C@@H](C)C(=O)[C@H](C)[C@@H](O)[C@]1(C)O` [ERYTHROMYCIN] displayed an Ionization above 96%. Besides, the Binding in data set [2] was 80%. Moreover, the pKa in data set [3] came out at 8.8.
In data set [1], `CC[C@H]1OC(=O)[C@H](C)[C@@H](O[C@H]2C[C@@](C)(OC)[C@@H](O)[C@H](C)O2)[C@H](C)[C@@H](O[C@@H]2O[C@H](C)C[C@H](N(C)C)[C@H]2O)[C@](C)(O)C[C@@H](C)/C(=N\OCOCCOC)[C@H](C)[C@@H](O)[C@]1(C)O` [ROXITHROMYCIN] displayed an Ionization above 96%. The Binding in data set [2] stood at 95%. This compound also returned a pKa in data set [3] of 9.2.
